Like-named read-outs stand apart in the source and are kept apart here.
Tests used:
[1] = tested on: subcutaneous colon MC38 syngeneic tumor; experiment: subcutaneous colon MC38 syngeneic tumor model; conditions: for Drug death (day) / Mean body weight change in % at nadir (day) / Regression CR / Regression PR: n=6; for tolerability of treatments: doses lower than maximal tolerated dose (MTD)
Protocol: […] Control groups were left untreated. The doses of the compounds used are given in mg/kg.
For the evaluation of anti-tumor activity, animals were weighed, and tumors were measured by caliper 2 times weekly. A dosage producing a 20% weight loss at nadir (mean of group) or 10% or more drug deaths, was considered an excessively toxic dosage. Animal body weights included the tumor weights. Tumor volumes were calculated using the formula mass (mm^3)=[length (mm)×width (mm)×width (mm)]/2. The primary efficacy end points are ΔT/ΔC, percent median regression, partial and complete regressions (PR and CR).
Changes in tumor volume for each treated (T) and control (C) are calculated for each tumor by subtracting the tumor volume on the day of first treatment (staging day) from the tumor volume on the specified observation day. The median ΔT is calculated for the treated group and the median ΔC is calculated for the control group. Then the ratio ΔT/ΔC is calculated and expressed as a percentage: ΔT/ΔC=(delta T/delta C)×100.
The dose is considered as therapeutically active when ΔT/ΔC is lower than 40% and very active when ΔT/ΔC is lower than 10%.
% tumor regression is defined as the % of tumor volume decrease in the treated group at a specified observation day compared to its volume on the first day of first treatment.
At a specific time point and for each animal, % regression is calculated. The median % regression is then calculated for the group:
Partial regression (PR): Regressions are defined as partial if the tumor volume decreases to 50% of the tumor volume at the start of treatment.
Complete regression (CR): Complete regression is achieved when tumor volume=0 mm^3 (CR is considered when tumor volume cannot be recorded).
Control groups were left untreated. The doses of the compounds used are given in mg/kg.
See above (Ex 2) for the conditions of anti-tumor activity and toxicity evaluation.

[2] = target: CEACAM8 (Homo sapiens, UniProt P31997)
[3] = target: CEACAM1 (Homo sapiens, UniProt P13688)
[4] = target: CEACAM7 (Homo sapiens, UniProt Q14002)
[5] = tested on: NSQ NSCLC with tumor CEACAM5 expression
[6] = target: CEACAM6 (Homo sapiens, UniProt P40199)
[7] = tested on: human primary colon and stomach tumors; conditions: mice bearing human primary colon and stomach tumors; see WO 2014/079886; cited from earlier work
[8] = antibody as single agent 10 mg/kg IV (total 40)
[9] = huMAb2-3-SPDB-DM4 15 mg/kg IV day 10, alone or + antibody 10 mg/kg IV
[10] = huMAb2-3-SPDB-DM4 25 mg/kg IV day 10, alone or + antibody 10 mg/kg IV

Chain of CEACAM7 (Q14002 36-242): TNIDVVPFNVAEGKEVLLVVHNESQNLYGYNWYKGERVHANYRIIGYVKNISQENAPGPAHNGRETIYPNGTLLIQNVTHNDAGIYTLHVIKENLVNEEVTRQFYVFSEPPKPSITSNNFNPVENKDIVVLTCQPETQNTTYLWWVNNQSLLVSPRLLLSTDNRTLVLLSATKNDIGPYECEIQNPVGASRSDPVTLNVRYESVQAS
Chain of CEACAM8 (P31997 35-320): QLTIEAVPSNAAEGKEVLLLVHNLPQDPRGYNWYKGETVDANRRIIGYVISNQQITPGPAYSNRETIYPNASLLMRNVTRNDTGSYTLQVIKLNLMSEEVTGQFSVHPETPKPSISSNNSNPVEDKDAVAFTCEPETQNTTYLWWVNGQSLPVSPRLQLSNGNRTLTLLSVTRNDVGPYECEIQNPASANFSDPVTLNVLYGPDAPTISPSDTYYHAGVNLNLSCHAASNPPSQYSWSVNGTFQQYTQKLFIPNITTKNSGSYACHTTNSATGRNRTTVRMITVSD
Chain of CEACAM6 (P40199 35-320): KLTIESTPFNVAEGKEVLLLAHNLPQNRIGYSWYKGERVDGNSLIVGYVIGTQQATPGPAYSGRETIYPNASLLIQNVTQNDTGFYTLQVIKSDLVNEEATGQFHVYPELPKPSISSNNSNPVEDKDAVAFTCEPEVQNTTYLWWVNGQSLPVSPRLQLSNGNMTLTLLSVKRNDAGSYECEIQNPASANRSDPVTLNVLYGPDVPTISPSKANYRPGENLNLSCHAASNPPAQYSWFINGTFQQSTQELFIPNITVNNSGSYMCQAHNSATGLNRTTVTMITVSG
Chain of CEACAM1 (P13688 35-526): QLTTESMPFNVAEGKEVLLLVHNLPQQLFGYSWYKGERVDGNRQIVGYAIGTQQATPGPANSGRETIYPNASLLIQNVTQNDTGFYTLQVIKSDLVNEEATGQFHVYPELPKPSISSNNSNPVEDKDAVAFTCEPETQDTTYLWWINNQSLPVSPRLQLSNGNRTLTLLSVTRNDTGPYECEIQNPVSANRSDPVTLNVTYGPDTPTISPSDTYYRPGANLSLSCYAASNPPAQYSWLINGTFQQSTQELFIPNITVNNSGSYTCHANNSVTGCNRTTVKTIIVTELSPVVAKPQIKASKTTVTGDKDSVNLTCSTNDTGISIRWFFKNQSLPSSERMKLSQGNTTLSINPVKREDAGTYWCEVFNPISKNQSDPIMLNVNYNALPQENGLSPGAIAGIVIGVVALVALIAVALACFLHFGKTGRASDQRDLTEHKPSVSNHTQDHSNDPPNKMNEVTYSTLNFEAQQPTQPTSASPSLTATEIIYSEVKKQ

## Atezolizumab [anti-mu/huPD-L1 (Atezolizumab), reference compound]
[1]; [8]
  Biological comments: Marginally
  Drug death (day): 0/6
  Mean body weight change in % at nadir (day): +2.08%
  Regression CR: 1/6
  Regression PR: 1/6
[1]; antibody as single agent 10 mg/kg IV (total 40), listed as anti-mu/PD-L1 mAb
  Biological comments: marginally active
[1]
  tolerability of treatments: well tolerated and did not induce toxicity

## tusamitamab ravtansine
[2]
  recognition of CEACAM8: does not recognize
[1]
  tolerability of treatments: well tolerated and did not induce toxicity
[1]; [9]
  Biological comments: Inactive
  Median ΔT/ΔC in % (D 22): 46%
  Drug death (day): 0/6
  Mean body weight change in % at nadir (day): +3.95%
  Regression CR: 0/6
  Regression PR: 0/6
[1]; [10]
  Biological comments: highly active
  Median ΔT/ΔC in % (D 22): <0%
  Drug death (day): 0/6
  Mean body weight change in % at nadir (day): +1.30%
  Regression CR: 1/6
  Regression PR: 4/6
[3]
  recognition of CEACAM1: does not recognize
[4]
  recognition of CEACAM7: does not recognize
[5]; 28 heavily pre-treated patients, tumor CEACAM5 expression ≥1% and <5 0%
  overall response rate per RECIST 1.1: 7.1%
[5]; 64 heavily pre-treated patients, tumor CEACAM5 expression ≥50%
  overall response rate per RECIST 1.1: 20.3%
[6]
  recognition of CEACAM6: does not recognize
[7]
  tumor growth in vivo: markedly inhibit tumor growth
